Test results reported in patent US9242997B2, “Tricyclic pyrazole sulphonamide compunds and methods of making and using same” (Zafgen, Inc., priority 2011, dated 2016).

Biological target: T1, Human recombinant MetAP2 (Homo sapiens, UniProt P50579)
T1 construct: made in house; host or cells: Sf9 insect cells
Assay: recombinant human MetAP2 inhibition assay (MAS substrate, amino acid oxidase/Amplex red fluorescence)
Type: biochemical
Details: manganese enzyme, 30 minutes at 25° C., pH 7.5, 0.75 mM MAS substrate, 1% DMSO
Procedure: Compounds are tested for their capacity to inhibit recombinant human MetAP2 activity using the following assay.
Human recombinant MetAP2 expressed in Sf9 cells followed by affinity purification and EDTA treatment to remove endogenous active site cation was dialysed against MnCl2 to produce the manganese enzyme used in the assay. The assay was carried out for 30 minutes at 25° C. in 50 mM HEPES buffer containing 100 mM NaCl, pH 7.5 the presence of 0.75 mM Methionine-Alanine-Serine (MAS) substrate and 50 μg/ml amino acid oxidase using a dilution of purified MetAP2 giving>3-fold signal: noise. Cleavage of the substrate by MetAP2 and oxidation of free methionine by amino acid oxidase was detected and quantified using fluorescence generated by Amplex red (10-acetyl-3,7-dihydroxyphenoxazine) in combination with horseradish peroxidase which detects H2O2 released during the oxidation step. The fluorescent signal was detected using a multiwell fluorimeter. Compounds were diluted in DMSO prior to addition to assay buffer, the final DMSO concentration in the assay being 1%.
The IC50 is defined as the concentration at which a given compound achieves 50% inhibition of control. IC50 values are calculated using the XLfit software package (version 2.0.5).

T1 sequence (P50579 whole entry): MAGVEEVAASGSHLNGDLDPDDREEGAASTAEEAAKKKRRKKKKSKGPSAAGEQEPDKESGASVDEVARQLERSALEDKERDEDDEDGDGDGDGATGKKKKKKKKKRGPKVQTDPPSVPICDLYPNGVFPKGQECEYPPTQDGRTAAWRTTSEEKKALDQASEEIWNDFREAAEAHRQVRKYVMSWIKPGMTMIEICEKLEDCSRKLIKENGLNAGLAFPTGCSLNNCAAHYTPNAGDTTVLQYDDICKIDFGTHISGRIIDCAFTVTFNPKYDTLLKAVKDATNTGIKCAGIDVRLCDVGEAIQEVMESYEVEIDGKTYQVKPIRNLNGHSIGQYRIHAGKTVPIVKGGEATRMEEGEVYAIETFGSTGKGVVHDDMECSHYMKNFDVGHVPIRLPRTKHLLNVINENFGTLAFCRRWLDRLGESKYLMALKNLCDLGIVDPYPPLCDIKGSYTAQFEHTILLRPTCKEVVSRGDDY

SMILES	IC50 [nM]
CCN(CC)C/C=C\c1cc(F)ccc1S(=O)(=O)Nc1ccc2c(c1C(=O)O)OCc1nccn1-2 [Example 4, 7-[2-((Z)-3-Diethylaminoprop-1-enyl)-4-fluorobenzenesulfonylamino]-4H-5-oxa-3,9b-diazacyclopenta[a]naphthalene-6-carboxylic acid]	< 50
CCN(CC)C/C=C\c1cc(F)ccc1S(=O)(=O)Nc1ccc2c(c1C(=O)O)CCn1nccc1-2 [Example 3, 8-[2-((Z)-3-Diethylaminoprop-1-enyl)-4-fluorobenzenesulfonylamino]-5,6-dihydropyrazolo[5,1-a]isoquinoline-7-carboxylic acid]	50 to 500
CCN(CC)C/C=C\c1cc(F)ccc1S(=O)(=O)Nc1ccc2c(ccn3nccc23)c1C(=O)O [Example 1, 8-[2-((Z)-3-Diethylaminoprop-1-enyl)-4-fluorobenzenesulfonylamino]-pyrazolo[5,1-a]isoquinoline-7-carboxylic acid]	< 50
CCN(CC)C/C=C\c1cc(F)ccc1S(=O)(=O)Nc1ccc2c(c1C(=O)O)OCc1cccn1-2 [Example 2, 7-[2-((Z)-3-Diethylaminoprop-1-enyl)-4-fluorobenzenesulfonylamino]-4H-benzo[b]pyrrolo[1,2-d][1,4]oxazine-6-carboxylic acid]	< 50
